Earlier results, collected in patent publication US5973156A, “Piperidine and tetrahydropyridine derivatives” (Merck Sharp & Dome Ltd., priority 1995, dated 1999).

Tests used:
[1] = humans, therapeutic doses
[2] = system: human 5-HT1D.spsb.α and 5-HT1D.spsb.β receptor subtypes

discrimination between the human 5-HT1D.spsb.α and 5-HT1D.spsb.β receptor subtypes [2]: barely discriminates
Structure (SMILES): CNS(=O)(=O)Cc1ccc2[nH]cc(CCN(C)C)c2c1 [sumatriptan]
adverse cardiovascular events [1]: certain adverse cardiovascular events
